Data on six compounds can be found in ChEMBL document CHEMBL5725412, “Substituted pyrazolo[1,5-a]pyrazines as negative allosteric modulators of metabotropic glutamate receptor 3” (2017).

As a reminder, the IC50 is the concentration needed to halve the response being measured.

One experiment is described as follows: mGlu5 Ca2+ Flux Assay: HEK 293A cells stably expressing rat mGlu5 were plated in black-walled, clear-bottomed, poly-D-lysine coated 384-well plates in 20 μL of assay medium (DMEM containing 10% dialyzed FBS, 20 mM HEPES, 100 units/mL penicillin/streptomycin plus 250 ng/mL Fungizone, and 1 mM sodium pyruvate) at a density of 20K cells/well. The cells were grown overnight at 37° C. in the presence of 5% CO2. The next day, medium was removed and the cells incubated with 20 μL of 2.3 μM Fluo-4, AM prepared as a 2.3 mM stock in DMSO and mixed in a 1:1 ratio with 10% (w/v) pluronic acid F-127 and diluted in assay buffer (Hank's balanced salt solution, 20 mM HEPES, and 2.5 mM probenecid) for 45 minutes at 37° C. Dye was removed, 20 μL of assay buffer was added, and the plate was incubated for 5 minutes at room temperature.
Conditions: not given
Consider `Cc1cccc(NCc2cc3n(n2)[C@H](C)CN(c2ccc(F)cc2)C3=O)c1`, for which the 50% inhibitory concentration (IC50) is 1210 nM. For `O=C1c2cc(CNc3ccc(OC(F)F)cc3)nn2CCN1c1ccc(F)cc1`, the IC50 was 334 nM.

The experiment is the same for the next values; noted with them: HEK293-A.
Regarding `Cc1cccc(NCc2cc3n(n2)[C@@H](C)CN(c2ccc(F)cc2)C3=O)c1`, the IC50 amounted to 1840 nM. On to `COc1ccc(NCc2cc3n(n2)CCN(c2ccc(F)c(F)c2)C3=O)cc1`, for which the IC50 came out at 1470 nM. The same measure, in the same setting: as for `COc1ccc(N(C)Cc2cc3n(n2)CCN(c2c(F)cccc2F)C3=O)cc1`, the figure is 1020 nM; as for `COc1ccc(N(C)Cc2cc3n(n2)CCN(c2ccc(OC)cc2)C3=O)cc1`, 2880 nM.
